Reference: PMC8073005, “Antifungal Activity and DNA Topoisomerase Inhibition of Hydrolysable Tannins from Punica granatum L” (International Journal of Molecular Sciences, 2021)
Values after ≈ are worked out from the molar mass of the structure shown. Values joined by “and” are separate entries in the source; they are usually repeats but may differ in a detail not shown here. Identical values can stand only once. Like-named read-outs stand apart in the source and are kept apart here.

Key:
[1] = test system: Alternaria alternata AL19; assay: MIC, micro-spectrophotometric growth assay (phytopathogens); format: cell-based; details: for MIC: Alternaria alternata AL19, PDB, 24 °C, dark, imazalil at label dose, read-out: Minimum inhibitory concentration (MIC)
Botrytis cinerea B2 = assay: as above; format: cell-based; details: for MIC: Botrytis cinerea B2, PDB, 24 °C, dark, imazalil at label dose, read-out: Minimum inhibitory concentration (MIC)
[2] = test system: Colletotrichum acutatum s.s. M146-2; assay: as above; format: cell-based, Colletotrichum acutatum sensu stricto; details: for MIC: Colletotrichum acutatum s.s. M146-2, PDB, 24 °C, dark, imazalil at label dose, read-out: Minimum inhibitory concentration (MIC)
Candida albicans SC 5314 = assay: MIC, broth microdilution (human pathogens); format: cell-based; details: SC5314; Candida albicans SC 5314; SDB, 30 °C, 48 h; read-out: Minimum inhibitory concentration (MIC)
Candida albicans 1 = assay: MIC, broth microdilution (human pathogens); format: cell-based; details: Candida albicans 1; SDB, 30 °C, 48 h; read-out: Minimum inhibitory concentration (MIC)
Candida albicans 2 = assay: MIC, broth microdilution (human pathogens); format: cell-based; details: Candida albicans 2; SDB, 30 °C, 48 h; read-out: Minimum inhibitory concentration (MIC)
Candida albicans H = assay: MIC, broth microdilution (human pathogens); format: cell-based; details: Candida albicans H; SDB, 30 °C, 48 h; read-out: Minimum inhibitory concentration (MIC)
Candida albicans 40 = assay: MIC, broth microdilution (human pathogens); format: cell-based; details: Candida albicans 40; SDB, 30 °C, 48 h; read-out: Minimum inhibitory concentration (MIC)
Candida albicans 41 = assay: MIC, broth microdilution (human pathogens); format: cell-based; details: Candida albicans 41; SDB, 30 °C, 48 h; read-out: Minimum inhibitory concentration (MIC)
[3] = test system: Aspergillus brasiliensis ATCC 16404; assay: MIC, broth microdilution (human pathogens); format: cell-based; details: ATCC16404; Aspergillus brasiliensis ATCC 16404; SDB, 30 °C, 48 h; read-out: Minimum inhibitory concentration (MIC)
Aspergillus candidus 3 = assay: MIC, broth microdilution (human pathogens); format: cell-based; details: Aspergillus candidus 3; SDB, 30 °C, 48 h; read-out: Minimum inhibitory concentration (MIC)
Aspergillus candidus 25 = assay: MIC, broth microdilution (human pathogens); format: cell-based; details: Aspergillus candidus 25; SDB, 30 °C, 48 h; read-out: Minimum inhibitory concentration (MIC)
[4] = test system: Cryptococcus neoformans B 3501; assay: MIC, broth microdilution (human pathogens); format: cell-based; details: B3501; Cryptococcus neoformans B 3501; SDB, 30 °C, 48 h; read-out: Minimum inhibitory concentration (MIC)
[5] = test system: Cryptococcus neoformans ATCC 11240; assay: MIC, broth microdilution (human pathogens); format: cell-based; details: ATCC11240; Cryptococcus neoformans ATCC 11240; SDB, 30 °C, 48 h; read-out: Minimum inhibitory concentration (MIC)
Cryptococcus 67 = assay: MIC, broth microdilution (human pathogens); format: cell-based; details: Cryptococcus 67; SDB, 30 °C, 48 h; read-out: Minimum inhibitory concentration (MIC)
[6] = molecular target: T1, topoisomerase I from Candida albicans (Candida albicans, UniProt Q00313); assay: Topoisomerase I supercoiled DNA relaxation inhibition; format: biochemical; details: mean ± SD; relaxation of supercoiled pBR322; concentration range 0.001–200 μM; read-out: IC50 Value Topoisomerase I
T1 sequence (Q00313 1-778): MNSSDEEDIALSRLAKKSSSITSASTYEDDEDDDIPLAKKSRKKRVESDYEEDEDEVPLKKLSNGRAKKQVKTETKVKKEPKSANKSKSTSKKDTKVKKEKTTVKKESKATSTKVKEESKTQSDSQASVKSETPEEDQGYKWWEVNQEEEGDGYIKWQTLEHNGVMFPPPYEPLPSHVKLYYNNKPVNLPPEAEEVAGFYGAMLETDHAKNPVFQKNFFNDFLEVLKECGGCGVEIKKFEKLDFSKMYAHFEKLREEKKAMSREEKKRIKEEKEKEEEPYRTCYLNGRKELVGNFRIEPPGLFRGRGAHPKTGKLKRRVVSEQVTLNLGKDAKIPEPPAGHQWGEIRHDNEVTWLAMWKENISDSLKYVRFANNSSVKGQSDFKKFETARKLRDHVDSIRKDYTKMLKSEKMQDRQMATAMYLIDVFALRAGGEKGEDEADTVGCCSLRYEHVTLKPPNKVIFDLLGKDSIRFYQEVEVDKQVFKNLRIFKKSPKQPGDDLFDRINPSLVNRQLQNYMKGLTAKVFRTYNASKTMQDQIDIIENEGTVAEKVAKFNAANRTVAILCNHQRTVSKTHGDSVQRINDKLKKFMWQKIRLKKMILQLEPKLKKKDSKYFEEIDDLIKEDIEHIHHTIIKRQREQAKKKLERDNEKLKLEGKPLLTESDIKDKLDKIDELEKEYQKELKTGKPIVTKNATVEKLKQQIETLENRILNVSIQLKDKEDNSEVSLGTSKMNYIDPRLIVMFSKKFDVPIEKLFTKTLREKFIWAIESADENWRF

Candida strains = assay: Agar Disk Diffusion Assay, Candida strains; format: cell-based
[7] = test system: other genera tested (other fungi strains); assay: Agar Disk Diffusion Assay, other genera; format: cell-based
Method: The antifungal activity of pomegranate compounds was evaluated against 19 clinically isolated fungal strains, including nine belonging to Candida albicans species, two belonging to Aspergillus genus, one belonging to Cryptococcus genus, and one Saccharomyces cerevisiae. The C. albicans strains were isolated on CHROMID agar, Aspergillus and Cryptococcus genus were isolated on SDA-CAF and one Saccharomyces cerevisiae on SDA. All the isolates were confirmed by matrix-assisted laser desorption ionization (MALDI) time-of-flight mass spectrometry (TOF/MS). Strains from the American Type Culture Collection (ATCC) were included. All strains were maintained in SDB with 20% (w/v) glycerol at −80 °C until use and sub-cultured in SDA before each test.
The preliminary determination of the antifungal activity of the target compounds (punicalagin, punicalin, ellagic acid, and gallic acid) from pomegranate was carried out by means of the agar disk diffusion assay, according to the standard procedure of the Clinical and Laboratory Standards Institute, with slight modifications. Plates containing SDA were uniformly spread with 100 μL of 10^3 conidia/mL of each strain suspension. […] Disks containing fluconazole (25 μg), amphotericin B (25 μg) and DMSO (20 μL) were used as the positive and the negative control, respectively. The antifungal activity of pomegranate compounds was evaluated by measuring the diameter of the clear inhibition zone formed right around the disks after 48 h incubation at 30 ± 1 °C. The experiment was carried out in triplicate.

SMILES	MIC [1]	MIC (Botrytis cinerea B2)	MIC [2]	MIC ([2]; S.S.M1462)	MIC (Candida albicans SC 5314)	MIC (Candida albicans 1)	MIC (Candida albicans 2)	MIC (Candida albicans H)	MIC (Candida albicans 40)	MIC (Candida albicans 41)	MIC [3]	MIC (Aspergillus candidus 3)	MIC (Aspergillus candidus 25)	MIC [4]	MIC [5]	MIC (Cryptococcus 67)	IC50 [6]	also measured
O=C1OC[C@H]2OC(O)[C@H](O)[C@@H](O)[C@@H]2OC(=O)c2cc(O)c(O)c(O)c2-c2c(O)c(O)c3oc(=O)c4c(c(O)c(O)c5oc(=O)c2c3c54)-c2c1cc(O)c(O)c2O (mixture of isomers) [Punicalin, punicalin]	255.6 µM and 256 µM	255.6 µM and 256 µM	255.6 µM	256 µM	127 µM	3.8 µM	3.8 µM	1.9 µM	127 µM	127 µM	1.9 µM	127 µM	127 µM	1.9 µM	1.9 µM	127 µM	14.7 ± 0.9 µM	growth reduction ([2]; C. acutatum s.s., up to 24 h of incubation): 83%; share of Candida strains with inhibition zone from 11 to 20 mm (Candida strains; 100 µg): 91%; share of other fungi strains with inhibition zone from 11 to 20 mm ([7]; 100 µg): 63%
O=c1oc2c(O)c(O)cc3c(=O)oc4c(O)c(O)cc1c4c23 [Ellagic Acid, ellagic acid]	165.4 µM and 165 µM	165.4 µM and 165 µM	165.4 µM (≈ 50 µg/mL)	165 µM (≈ 50 µg/mL)	2.5 µM (≈ 0.755 µg/mL)	5 µM (≈ 1.51 µg/mL)	2.5 µM (≈ 0.755 µg/mL)	331 µM (≈ 100 µg/mL)	331 µM (≈ 100 µg/mL)	331 µM (≈ 100 µg/mL)	662 µM (≈ 200 µg/mL)	662 µM (≈ 200 µg/mL)	662 µM (≈ 200 µg/mL)	331 µM (≈ 100 µg/mL)	331 µM (≈ 100 µg/mL)	662 µM (≈ 200 µg/mL)	56.6 ± 1.2 µM	antifungal activity (growth curve) ([1]; A. alternata, Figure S3): no or little antifungal activity; antifungal activity (growth curve) (Botrytis cinerea B2; B. cinerea, Figure S3): no or little antifungal activity; share of Candida strains with inhibition zone from 21 to 30 mm (Candida strains; 25 μg): 64%; share of Candida tested strains with growth inhibition zone from 11 to 20 mm (Candida strains; 25 μg): 36%; share of Candida strains with growth inhibition from 21 to 30 mm (Candida strains; 62.5 µg): 73%; share of other strains with growth inhibition from 21 to 30 mm ([7]; 62.5 µg): 100%
